Patent US11535643B2, “Macrolides with modified desosamine sugars and uses thereof” (President and Fellows of Harvard College, priority 2015, dated 2022)
In brackets after ≈: the same amount, converted by molar mass. Like-named read-outs stand apart in the source and are kept apart here.

What was measured:
Assay type in all cases: cell-based
[1] = system: S. aureus; test: Broth dilution MIC determination (CLSI) against S. aureus strains; settings: for MIC: Staphylococcus aureus
How it was run: (§1)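 MICs were determined by CLSI standard broth dilution against several strains per species, including multidrug-resistant and macrolide-resistant strains. Azithromycin and solithromycin served as control compounds.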

[2] = system: S. pneumoniae; test: Broth dilution MIC determination (CLSI) against S. pneumoniae strains; settings: for MIC: Streptococcus pneumoniae
How it was run: as §1

[3] = system: S. pyogenes; test: Broth dilution MIC determination (CLSI) against S. pyogenes strains; settings: Streptococcus pyogenes
How it was run: as §1

[4] = system: E. faecalis; test: Broth dilution MIC determination (CLSI) against E. faecalis strains; settings: for MIC: Enterococcus faecalis
How it was run: as §1

[5] = system: E. coli; test: Broth dilution MIC determination (CLSI) against E. coli strains; settings: Escherichia coli
How it was run: as §1

[6] = system: A. baumannii; test: Broth dilution MIC determination (CLSI) against A. baumannii strains; settings: Acinetobacter baumannii
How it was run: as §1

[7] = system: K. pneumoniae; test: Broth dilution MIC determination (CLSI) against K. pneumoniae strains; settings: for MIC: Klebsiella pneumoniae
How it was run: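 CLSI broth-dilution MICs across a panel including multidrug- and macrolide-resistant strains, with azithromycin and solithromycin as control compounds.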

[8] = system: P. aeruginosa; test: Broth dilution MIC determination (CLSI) against P. aeruginosa strains; settings: Pseudomonas aeruginosa
How it was run: as §1

[9] = system: H. influenzae; test: Broth dilution MIC determination (CLSI) against H. influenzae strains; settings: for MIC: Haemophilus influenzae
Text: Minimum inhibitory concentrations (MICs) for macrolides described herein have been determined for unique strains of S. aureus, S. pneumoniae, S. pyogenes, E. faecalis, E. coli, A. baumannii, K. pneumoniae, P. aeruginosa, and H. influenzae, including several multidrug-resistant strains, with a special focus on macrolide resistant mechanisms. Azithromycin and solithromycin were included as control compounds. CLSI standard procedures for broth dilution MIC determination were used. Data for exemplary compounds described herein is shown in Tables M1-M7 and in Tables N1-N4.

[10] = ATCC29213, ATCC29213, read-out: MIC S. aureus ATCC29213
[11] = USA600, USA600, GISA, read-out: MIC S. aureus USA600, GISA
[12] = read-out: MIC S. aureus erm A genotype
[13] = ATCC49619, ATCC49619, read-out: MIC S. pneumoniae ATCC49619
[14] = erm B + mef A genotype, read-out: MIC S. pneumoniae erm B + mef A genotype
[15] = erm B + tet(M, O) genotype, read-out: MIC S. pneumoniae erm B + tet(M, O) genotype
[16] = read-out: MIC S. pneumoniae mef A genotype, mef A genotype
[17] = read-out: MIC S. pneumoniae mef A genotype, mef A genotype, first of two such columns (c3)
[18] = ATCC19615, ATCC19615, read-out: MIC S. pyogenes ATCC19615
[19] = macrolide-resistant, read-out: MIC S. pyogenes macrolide-resistant
[20] = ATCC29212, ATCC29212, read-out: MIC E. faecalis ATCC29212
[21] = Vancomycin-resistant, read-out: MIC E. faecalis Vancomycin-resistant
[22] = ATCC25922, ATCC25922, read-out: MIC E. coli ATCC25922
[23] = read-out: MIC E. coli CTX-M-14, CTX-M-14
[24] = read-out: MIC E. coli NDM-1, NDM-1
[25] = read-out: MIC E. coli TEM-1, TEM-1
[26] = ATCC19606, ATCC19606, read-out: MIC A. baumannii ATCC19606
[27] = IMP-4, read-out: MIC A. baumannii IMP-4
[28] = chromosomal class C, read-out: MIC A. baumannii chromosomal class C
[29] = imipenem-resistant, read-out: MIC A. baumannii imipenem-resistant
[30] = ATCC10031, ATCC10031, read-out: MIC K. pneumoniae ATCC10031
[31] = KPC-2, read-out: MIC K. pneumoniae KPC-2
[32] = SHV-12, read-out: MIC K. pneumoniae SHV-12
[33] = TEM-10, read-out: MIC K. pneumoniae TEM-10
[34] = ATCC27853, read-out: MIC P. aeruginosa ATCC27853
[35] = read-out: MIC P. aeruginosa HPA101-1477
[36] = ATCC49247, ATCC49247, read-out: MIC H. influenzae ATCC49247
[37] = erythro > 4, azithro 1, read-out: MIC H. influenzae erythro > 4, azithro 1
[38] = MRSA / USA100, MRSA: USA100, read-out: MIC S. aureus MRSA: USA100
[39] = MRSA / USA300, MRSA: USA300, read-out: MIC S. aureus MRSA: USA300

Row | SMILES | MIC [1, 11] [µg/mL] | MIC [1, 12] [µg/mL] | MIC [2, 13] [µg/mL] | MIC [2, 15] [µg/mL] | MIC [3, 18] [µg/mL] | MIC [3, 19] [µg/mL] | MIC [4, 21] [µg/mL] | MIC [5, 22] [µg/mL] | MIC [5, 23] [µg/mL] | MIC [5, 24] [µg/mL] | MIC [5, 25] [µg/mL] | MIC [6, 26] [µg/mL] | MIC [6, 27] [µg/mL] | MIC [6, 28] [µg/mL] | MIC [6, 29] [µg/mL] | MIC [7, 30] [µg/mL] | MIC [7, 31] [µg/mL] | MIC [7, 32] [µg/mL] | MIC [8, 34] [µg/mL] | MIC [8, 35] [µg/mL] | further results
1 | CC[C@H]1OC(=O)[C@H](C)[C@@H](O[C@H]2C[C@@](C)(OC)[C@@H](O)[C@H](C)O2)[C@H](C)[C@@H](O[C@@H]2O[C@H](C)C[C@H](N(C)C)[C@H]2O)[C@](C)(O)C[C@@H](C)CN(C)[C@H](C)[C@@H](O)[C@]1(C)O [Azithromycin, azithromycin, reference compound] | > 32 | > 32 | < 0.0312 | < 0.0312 | < 0.0312 | 2 (≈ 2.67 µM) | > 32 | 4 (≈ 5.34 µM) | > 32 | > 32 | 1 (≈ 1.34 µM) | 16 (≈ 21.4 µM) | > 32 | 32 (≈ 42.7 µM) | 8 (≈ 10.7 µM) | 4 (≈ 5.34 µM) | > 32 | 16 (≈ 21.4 µM) | > 32 | > 32 | MIC [1, 10]: 1 µg/mL (≈ 1.34 µM); MIC ([1]; MRSA / USA100, read-out: MIC S. aureus MRSA: USA100): > 32 µg/mL; MIC ([1]; MRSA / USA300, read-out: MIC S. aureus MRSA: USA300): 32 µg/mL (≈ 42.7 µM); MIC [2, 14]: > 32 µg/mL; MIC [2, 16]: 4 µg/mL (≈ 5.34 µM); MIC [2, 17]: 0.25 µg/mL (≈ 0.334 µM); MIC [4, 20]: 4 µg/mL (≈ 5.34 µM); MIC [7, 33]: 8 µg/mL (≈ 10.7 µM); MIC [9, 36]: 0.5 µg/mL (≈ 0.668 µM); MIC [9, 37]: 0.125 µg/mL (≈ 0.167 µM)
2 | CC[C@H]1OC(=O)[C@H](C)C(=O)[C@H](C)[C@@H](O[C@@H]2OC(Cn3cc(-c4cnc(N)s4)nn3)CC(N(C)C)C2O)[C@](C)(OC)C[C@@H](C)CN[C@H](C)[C@H]2N(CCCCn3cc(-c4cccc(N)c4)nn3)C(=O)O[C@]12C (stereo partly shown) [FSM-22125] | > 32 | > 32 | ≤ 0.0312 | ≤ 0.0312 | ≤ 0.0312 | 4 (≈ 4.03 µM) | > 32 | 32 (≈ 32.2 µM) | > 32 | > 32 | 16 (≈ 16.1 µM) | > 32 | > 32 | 32 (≈ 32.2 µM) | > 32 | 32 (≈ 32.2 µM) | > 32 | > 32 | > 32 | > 32 | MIC [1, 10]: 4 µg/mL (≈ 4.03 µM); MIC [1, 38]: > 32 µg/mL; MIC [1, 39]: > 32 µg/mL; MIC [2, 14]: > 32 µg/mL; MIC [2, 16]: 4 µg/mL (≈ 4.03 µM); MIC [2, 17]: 0.5 µg/mL (≈ 0.503 µM); MIC [4, 20]: 0.5 µg/mL (≈ 0.503 µM); MIC [7, 33]: 32 µg/mL (≈ 32.2 µM); MIC [9, 36]: 4 µg/mL (≈ 4.03 µM); MIC [9, 37]: 2 µg/mL (≈ 2.01 µM)
3 | CC[C@H]1OC(=O)[C@H](C)C(=O)[C@H](C)[C@@H](O[C@@H]2OC(Cn3cc(-c4ccccn4)nn3)CC(N(C)C)C2O)[C@](C)(OC)C[C@@H](C)CN[C@H](C)[C@H]2N(CCCCn3cc(-c4cccc(N)c4)nn3)C(=O)O[C@]12C (stereo partly shown) [FSM-22111] | > 32 | > 32 | ≤ 0.0312 | ≤ 0.0312 | ≤ 0.0312 | 1 (≈ 1.03 µM) | > 32 | 16 (≈ 16.5 µM) | > 32 | 32 (≈ 32.9 µM) | 16 (≈ 16.5 µM) | 16 (≈ 16.5 µM) | > 32 | 16 (≈ 16.5 µM) | 16 (≈ 16.5 µM) | 8 (≈ 8.23 µM) | 32 (≈ 32.9 µM) | > 32 | > 32 | > 32 | MIC S. aureus ATCC29213 ([1]; ATCC29213): 2 µg/mL (≈ 2.06 µM); MIC [1, 38]: > 32 µg/mL; MIC [1, 39]: > 32 µg/mL; MIC S. pneumoniae erm B + mef A genotype ([2]; erm B + mef A genotype): 2 µg/mL; MIC E. faecalis ATCC29212 ([4]; ATCC29212): 0.25 µg/mL (≈ 0.257 µM); MIC K. pneumoniae TEM-10 ([7]; TEM-10): 8 µg/mL (≈ 8.23 µM); MIC [9, 36]: 2 µg/mL (≈ 2.06 µM); MIC H. influenzae erythro > 4, azithro 1 ([9]; erythro > 4, azithro 1): 1 µg/mL (≈ 1.03 µM)
